Values after ≈ are worked out from the molar mass of the structure shown.
Experiments:
[1] = cited from earlier work
[2] = Solubility of PMIDA in water and HCl at various temperatures and pressures; type: physicochemical; settings: for solubility thermodynamic: aqueous buffer, thermodynamic from solid
From the text: In certain embodiments, the organophosphorous compound comprising a phosphonoalkyl moiety is at least partially solubilized in the acid component. As used herein, the term “at least partially solubilized,” and grammatical variants thereof, with reference to the organophosphorous compound comprising a phosphonoalkyl moiety in the acid component refers to dissolution of at least about 2% weight per volume (w/v) of the organophosphorous compound comprising a phosphonoalkyl moiety in the acid component at room temperature. As used herein, the term “room temperature” refers to about 15° C. to about 25° C. The remaining excess organophosphorous compound comprising a phosphonoalkyl moiety may be suspended in the acid component while it is undergoing dynamic fluid flow at room temperature. As temperatures increase (e.g., as the treatment fluid is introduced into a subterranean formation and encounters downhole temperatures), the solubility of the organophosphorous compound comprising a phosphonoalkyl moiety in the acid component may increase. Indeed, the solubility of the organophosphorous compound comprising a phosphonoalkyl moiety increases as a function of acid concentration, and temperature.

SMILES | pKa values [1] | solubility thermodynamic ([2]; 7.5% HCl, 37.8 °C, Atm., 100° F.) [mg/mL] | solubility thermodynamic ([2]; 7.5% HCl, 65.6 °C, Atm., 150° F.) [mg/mL] | solubility thermodynamic ([2]; 10% HCl, 37.8 °C, Atm., 100° F.) [mg/mL] | solubility thermodynamic ([2]; 10% HCl, 65.6 °C, Atm., 150° F.) [mg/mL] | solubility thermodynamic ([2]; 10% HCl, 93.3 °C, Atm., 200° F.) [mg/mL] | solubility thermodynamic ([2]; 15% HCl, 37.8 °C, 200 psi, 100° F.) [mg/mL] | solubility thermodynamic ([2]; 15% HCl, 37.8 °C, Atm., 100° F.) [mg/mL] | solubility thermodynamic ([2]; 15% HCl, 65.6 °C, 200 psi, 150° F.) [mg/mL] | solubility thermodynamic ([2]; 15% HCl, 65.6 °C, Atm., 150° F.) [mg/mL] | solubility thermodynamic ([2]; 15% HCl, 93.3 °C, 200 psi, 200° F.) [mg/mL] | solubility thermodynamic ([2]; 15% HCl, 93.3 °C, Atm., 200° F.) [mg/mL] | Solubility Average ([2]; Atm., 7.5% HCl, 200° F.) [w/v %]
O=C(O)CN(CCO)CC(=O)O [HEIDA, N-(2-hydroxyethyl)iminodiacetic acid] | about 2.2 |  |  |  |  |  |  |  |  |  |  |  | 
O=C([O-])CC(NC(C(=O)[O-])C(O)C(=O)[O-])C(=O)[O-].[Na+].[Na+].[Na+].[Na+] (centres unmarked) [HIDS, tetrasodium 3-hydroxy-2,2′-iminodisuccinate] | about 2.83 |  |  |  |  |  |  |  |  |  |  |  | 
O=C(O)CN(CC(=O)O)CP(=O)(O)O [PMIDA, N-(phosphonomethyl)iminodiacetic acid] |  | 17.4 (≈ 76.6 mM) | 39.7 (≈ 175 mM) | 20 (≈ 88.1 mM) | 49.1 (≈ 216 mM) | 101 (≈ 445 mM) | 41.1 (≈ 181 mM) | 30.6 (≈ 135 mM) | 95.7 (≈ 421 mM) | 72.2 (≈ 318 mM) | 203 (≈ 896 mM) | 166 (≈ 731 mM) | 10.00

Source: patent US20230065437A1, “ACIDIZING OF SUBTERRANEAN FORMATIONS WITH PLACEMENT OF SCALE INHIBITOR” (priority 2021, published 2023)
